Our source for the radio-labelled ligand displacement, Adrenergic α1A, radio-labelled ligand displacement, Serotoninergic 5-HT1B and inhibition values is patent US20130267551A1, “SUBSTITUTED HYDROGENATED THIENO-PYRROLO[3,2-C]PYRIDINE, LIGANDS, A PHARMACEUTICAL COMPOSITION AND A METHOD FOR USING THE ABOVE” (ALLA CHEM, LLC, priority 2010, published 2013).

One assay deals with Adrenergic α1A. The experiment in a line: competitive radioligand binding, Adrenergic α1A. Conditions: compound concentration of 1 μM. Put shortly: (§1)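 Test compounds were applied at 1 μM in competitive binding format, and activity was determined by measuring how much radio-labelled ligand they displaced from the target.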
The test system of a further assay is Serotoninergic 5-HT1B. Put plainly: competitive radioligand binding, Serotoninergic 5-HT1B. Conditions: compound concentration of 1 μM. Put shortly:
as §1

The next assay addresses Serotoninergic 5-HT2A (Homo sapiens, UniProt P28223). The experiment in a line: competitive radioligand binding, Serotoninergic 5-HT2A. Conditions: read-out: radio-labelled ligand displacement, Serotoninergic 5-HT2A. In a few lines:
as §1

Another assay deals with T1, Adrenergic α2A (Homo sapiens, UniProt P08913).
T1 sequence (P08913 1-465): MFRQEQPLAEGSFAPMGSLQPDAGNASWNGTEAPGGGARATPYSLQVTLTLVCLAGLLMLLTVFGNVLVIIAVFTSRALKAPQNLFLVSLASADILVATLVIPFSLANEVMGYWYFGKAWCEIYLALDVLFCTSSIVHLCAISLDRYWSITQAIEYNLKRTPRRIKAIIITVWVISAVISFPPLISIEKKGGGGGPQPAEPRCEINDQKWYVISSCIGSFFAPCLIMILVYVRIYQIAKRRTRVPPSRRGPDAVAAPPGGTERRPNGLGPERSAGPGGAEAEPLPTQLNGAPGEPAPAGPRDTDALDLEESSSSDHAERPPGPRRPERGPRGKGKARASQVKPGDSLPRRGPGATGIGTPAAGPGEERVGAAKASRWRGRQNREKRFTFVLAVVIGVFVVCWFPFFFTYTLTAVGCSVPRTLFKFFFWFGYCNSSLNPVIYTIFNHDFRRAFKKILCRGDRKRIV
Put plainly: competitive radioligand binding, Adrenergic α2A. Particulars: read-out: radio-labelled ligand displacement, Adrenergic α2A. Put shortly: as §1

The next assay addresses T2, Dopaminergic D4.2 (Homo sapiens, UniProt P21917, DEL265-296).
T2 sequence (P21917 with tags, fused parts or gaps DEL265-296): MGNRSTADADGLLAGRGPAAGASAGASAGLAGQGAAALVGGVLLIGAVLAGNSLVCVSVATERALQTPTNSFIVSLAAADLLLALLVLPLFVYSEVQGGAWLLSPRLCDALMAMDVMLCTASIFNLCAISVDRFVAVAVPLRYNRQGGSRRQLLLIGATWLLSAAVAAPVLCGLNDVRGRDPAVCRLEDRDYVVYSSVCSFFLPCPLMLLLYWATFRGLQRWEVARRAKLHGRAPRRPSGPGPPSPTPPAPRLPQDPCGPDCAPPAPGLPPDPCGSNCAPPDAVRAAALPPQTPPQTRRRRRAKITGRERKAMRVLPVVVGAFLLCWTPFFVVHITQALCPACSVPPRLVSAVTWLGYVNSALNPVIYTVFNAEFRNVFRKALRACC
The experiment in a line: competitive radioligand binding, Dopaminergic D4.2. Particulars: compound concentration of 1 μM; read-out: radio-labelled ligand displacement, Dopaminergic D4.2. In a few lines: as §1

Another assay deals with T3, Adrenergic α1D (Homo sapiens, UniProt P25100).
T3 sequence (P25100 1-572): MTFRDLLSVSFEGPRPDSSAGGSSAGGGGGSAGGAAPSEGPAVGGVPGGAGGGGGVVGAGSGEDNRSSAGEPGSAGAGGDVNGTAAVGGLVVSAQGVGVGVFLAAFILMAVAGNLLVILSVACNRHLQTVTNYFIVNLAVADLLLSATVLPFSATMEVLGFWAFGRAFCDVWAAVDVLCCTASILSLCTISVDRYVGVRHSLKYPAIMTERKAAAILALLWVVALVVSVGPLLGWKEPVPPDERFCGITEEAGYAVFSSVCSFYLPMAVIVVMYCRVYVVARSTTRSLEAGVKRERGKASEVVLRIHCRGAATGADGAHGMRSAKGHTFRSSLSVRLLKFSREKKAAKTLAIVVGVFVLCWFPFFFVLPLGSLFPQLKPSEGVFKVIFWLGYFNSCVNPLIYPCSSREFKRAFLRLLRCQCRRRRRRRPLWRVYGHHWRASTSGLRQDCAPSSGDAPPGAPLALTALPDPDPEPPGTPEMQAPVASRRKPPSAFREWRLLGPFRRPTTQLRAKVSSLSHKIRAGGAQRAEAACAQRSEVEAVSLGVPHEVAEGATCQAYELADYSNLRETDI
Put plainly: competitive radioligand binding, Adrenergic α1D. Conditions: compound concentration of 1 μM; read-out: radio-labelled ligand displacement, Adrenergic α1D. In a few lines:
as §1

For another assay, the target named is Histaminergic H3 (Homo sapiens, UniProt Q9Y5N1). Put plainly: competitive radioligand binding, Histaminergic H3. Conditions: compound concentration of 1 μM; read-out: radio-labelled ligand displacement, Histaminergic H3. Put shortly:
as §1

In a further assay the target is Dopaminergic D1 (Homo sapiens, UniProt P21728). Put plainly: competitive radioligand binding, Dopaminergic D1. Particulars: compound concentration of 1 μM; read-out: radio-labelled ligand displacement, Dopaminergic D1. Put shortly: as §1
Another assay addresses Dopaminergic D2L (Homo sapiens, UniProt P14416). Put plainly: competitive radioligand binding, Dopaminergic D2L. Conditions: compound concentration of 1 μM; read-out: radio-labelled ligand displacement, Dopaminergic D2L. In a few lines: as §1
The next assay concerns the target T4, Serotoninergic 5-HT2C (Homo sapiens, UniProt P28335).
T4 sequence (P28335 33-458): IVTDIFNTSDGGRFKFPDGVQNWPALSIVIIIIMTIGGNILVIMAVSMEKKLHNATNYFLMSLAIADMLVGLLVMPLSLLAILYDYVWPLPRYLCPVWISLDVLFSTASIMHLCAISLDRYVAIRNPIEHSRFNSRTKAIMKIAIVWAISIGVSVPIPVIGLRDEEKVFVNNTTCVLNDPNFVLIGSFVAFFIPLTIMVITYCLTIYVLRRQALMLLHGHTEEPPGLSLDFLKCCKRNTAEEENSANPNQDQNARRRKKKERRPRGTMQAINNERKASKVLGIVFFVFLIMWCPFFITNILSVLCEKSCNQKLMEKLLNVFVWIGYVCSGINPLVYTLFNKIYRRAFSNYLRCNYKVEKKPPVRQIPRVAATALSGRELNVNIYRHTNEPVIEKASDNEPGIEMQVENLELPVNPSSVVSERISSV
Put plainly: competitive radioligand binding, Serotoninergic 5-HT2C. Particulars: read-out: radio-labelled ligand displacement, Serotoninergic 5-HT2C. Put shortly: as §1

Another assay addresses Dopaminergic D3 (Homo sapiens, UniProt P35462). Put plainly: competitive radioligand binding, Dopaminergic D3. Conditions: compound concentration of 1 μM; read-out: radio-labelled ligand displacement, Dopaminergic D3. Put shortly: as §1

Structures can show the parent of a compound that is named as a salt.

Chain of Histaminergic H3 (Q9Y5N1 whole entry): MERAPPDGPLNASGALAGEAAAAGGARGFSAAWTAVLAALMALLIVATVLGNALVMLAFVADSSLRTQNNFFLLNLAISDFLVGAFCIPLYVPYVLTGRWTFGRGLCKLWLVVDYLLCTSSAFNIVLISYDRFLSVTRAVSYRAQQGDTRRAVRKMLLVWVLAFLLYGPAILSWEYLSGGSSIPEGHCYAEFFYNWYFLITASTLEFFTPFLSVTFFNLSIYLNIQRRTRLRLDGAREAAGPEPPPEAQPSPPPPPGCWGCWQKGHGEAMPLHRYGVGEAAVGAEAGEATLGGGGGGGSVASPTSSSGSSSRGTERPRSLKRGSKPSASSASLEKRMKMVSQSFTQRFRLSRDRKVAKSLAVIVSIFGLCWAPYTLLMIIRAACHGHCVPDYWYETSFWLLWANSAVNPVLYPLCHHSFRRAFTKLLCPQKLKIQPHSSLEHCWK
Chain of Dopaminergic D1 (P21728 whole entry): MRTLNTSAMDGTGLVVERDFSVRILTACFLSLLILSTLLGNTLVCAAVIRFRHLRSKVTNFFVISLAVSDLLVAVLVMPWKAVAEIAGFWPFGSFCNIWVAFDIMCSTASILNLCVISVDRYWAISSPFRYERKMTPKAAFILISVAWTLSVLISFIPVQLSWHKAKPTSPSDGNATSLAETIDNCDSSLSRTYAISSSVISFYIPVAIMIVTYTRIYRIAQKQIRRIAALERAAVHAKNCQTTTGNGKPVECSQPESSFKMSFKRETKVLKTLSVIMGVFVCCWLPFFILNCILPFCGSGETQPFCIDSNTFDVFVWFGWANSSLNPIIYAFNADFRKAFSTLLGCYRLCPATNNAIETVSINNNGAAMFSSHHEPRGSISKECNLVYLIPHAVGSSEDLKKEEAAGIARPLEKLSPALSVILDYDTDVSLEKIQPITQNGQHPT
Chain of Dopaminergic D2L (P14416 whole entry): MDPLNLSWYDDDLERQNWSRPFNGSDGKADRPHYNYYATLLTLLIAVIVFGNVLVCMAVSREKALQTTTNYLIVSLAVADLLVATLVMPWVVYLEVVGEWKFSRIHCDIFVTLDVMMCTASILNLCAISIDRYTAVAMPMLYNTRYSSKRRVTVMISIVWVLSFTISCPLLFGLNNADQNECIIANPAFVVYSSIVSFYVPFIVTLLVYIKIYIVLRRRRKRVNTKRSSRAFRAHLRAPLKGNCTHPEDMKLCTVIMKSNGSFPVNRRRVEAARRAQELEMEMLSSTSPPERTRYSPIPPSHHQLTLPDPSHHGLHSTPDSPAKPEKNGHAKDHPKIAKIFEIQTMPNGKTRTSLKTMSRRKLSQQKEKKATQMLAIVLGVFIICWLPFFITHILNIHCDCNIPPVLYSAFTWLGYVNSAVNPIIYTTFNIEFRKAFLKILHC
Chain of Dopaminergic D3 (P35462 whole entry): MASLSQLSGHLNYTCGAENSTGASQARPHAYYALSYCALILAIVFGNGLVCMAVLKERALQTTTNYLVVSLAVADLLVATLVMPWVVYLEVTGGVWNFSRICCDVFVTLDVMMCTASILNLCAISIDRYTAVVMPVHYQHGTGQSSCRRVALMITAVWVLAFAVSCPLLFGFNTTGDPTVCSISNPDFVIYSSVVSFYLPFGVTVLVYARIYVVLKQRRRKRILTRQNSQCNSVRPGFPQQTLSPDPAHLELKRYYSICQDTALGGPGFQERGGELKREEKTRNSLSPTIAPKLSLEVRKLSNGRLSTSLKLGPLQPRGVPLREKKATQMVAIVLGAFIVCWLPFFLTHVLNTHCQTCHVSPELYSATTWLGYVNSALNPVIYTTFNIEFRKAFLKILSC
Chain of Serotoninergic 5-HT2A (P28223 whole entry): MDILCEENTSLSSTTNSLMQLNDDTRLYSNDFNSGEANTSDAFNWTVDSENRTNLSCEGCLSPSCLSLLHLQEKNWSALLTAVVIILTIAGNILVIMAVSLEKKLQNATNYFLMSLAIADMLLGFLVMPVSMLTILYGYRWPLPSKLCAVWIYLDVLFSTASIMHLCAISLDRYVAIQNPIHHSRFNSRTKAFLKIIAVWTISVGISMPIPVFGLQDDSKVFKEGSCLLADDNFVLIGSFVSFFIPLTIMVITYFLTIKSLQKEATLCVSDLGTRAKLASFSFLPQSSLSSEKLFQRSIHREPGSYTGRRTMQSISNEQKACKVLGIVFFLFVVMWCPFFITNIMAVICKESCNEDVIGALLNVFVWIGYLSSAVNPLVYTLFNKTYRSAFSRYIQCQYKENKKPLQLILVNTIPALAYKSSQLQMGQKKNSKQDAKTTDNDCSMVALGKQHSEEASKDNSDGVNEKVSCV

As for `Cc1cc2c3c(n(CCc4ccccc4)c2s1)CCN(C)C3.Cl` [3.6(1)•HCl, 2,5-Dimethyl-8-(2-phenylethyl)-5,6,7,8-tetrahydro-4H-thieno[3′,2′:4,5]pyrrolo[3,2-c]pyridine hydrochloride], the radio-labelled ligand displacement, Adrenergic α1A in the assay on Adrenergic α1A was determined as 97%. This compound gave a radio-labelled ligand displacement, Serotoninergic 5-HT1B in the assay with Serotoninergic 5-HT1B of 47%. Moreover, the inhibition at 1 µM is 101% at Serotoninergic 5-HT2A; 100% on Adrenergic α2A; 71% at Dopaminergic D4.2; 92% at Adrenergic α1D; -17% at Histaminergic H3; 70% at Dopaminergic D1. For the same compound, the inhibition at 1 µM at Dopaminergic D2L was determined as 87%; on Serotoninergic 5-HT2C, 99%; at Dopaminergic D3, 73%.

`Cc1cc2c3c(n(Cc4ccccc4)c2s1)CC1CCC3N1C` (stereo not shown) [3.13(1)•HCl, 9-benzyl-2,10-dimethyl-4,5,6,7,8,9-hexahydro-4,7-epiminocyclohepta[b]thieno[3,2-d]pyrrole] came in with a radio-labelled ligand displacement, Adrenergic α1A with Adrenergic α1A of 61%. The radio-labelled ligand displacement, Serotoninergic 5-HT1B in the assay on Serotoninergic 5-HT1B was 20%. For the same compound, the inhibition at 1 µM on Serotoninergic 5-HT2A was determined as 95%; at Adrenergic α2A it was 65%; on Dopaminergic D4.2, 31%; on Adrenergic α1D it was 43%; at Histaminergic H3, 12%; on Dopaminergic D1, 40%. Moreover, the values for the inhibition at 1 µM on Dopaminergic D2L, on Serotoninergic 5-HT2C and at Dopaminergic D3 were 37%, 81% and 21%, respectively.
